# Like-named read-outs stand apart in the source and are kept apart here.
# Experiments:
# SARS-CoV-2 M^pro [1] = target: T1, SARS-CoV-2 M^pro (Severe acute respiratory syndrome coronavirus 2, UniProt P0DTD1); test: M^pro FRET proteolysis inhibition assay; type: biochemical; conditions: 20 μM drug, 10 nM M^pro
# SARS-CoV-2 M^pro [2] = target: T1, SARS-CoV-2 M^pro; test: M^pro 1D 1H-NMR proteolysis inhibition assay; type: biochemical; conditions: 50 μM inhibitor, 100 nM M^pro
# SARS-CoV-2 PL^pro = SARS-CoV-2 PL^pro (Severe acute respiratory syndrome coronavirus 2, UniProt P0DTD1); type: biochemical; conditions: for PL^pro protease activity inhibition, in words: 20 μM drug (grazoprevir in Fig S6: 100 µM)
# SARS-CoV-2 [3] = test: SARS-CoV-2 replication inhibition in Vero E6 cells; type: cell-based; conditions: up to 50 μM drug
# SARS-CoV-2 [4] = test: Antiviral combination assay with remdesivir in Vero E6 cells; type: cell-based; conditions: for Effect of HCV drug on the antiviral activity of remdesivir, in words / Effect of remdesivir on the antiviral activity (IC90) of the HCV drug, in words: Vero cells; for Effect of HCV drug on the antiviral activity of remdesivir, in words: IC90 of remdesivir with increasing HCV drug; for Effect of remdesivir on the antiviral activity (IC90) of the HCV drug, in words: addition of 1.25 μM remdesivir
# SARS-CoV-2 [5] = type: cell-based
# SARS-CoV-2 [6] = test: Time-of-addition assay; type: cell-based; conditions: BOC 50 μM, GRZ 25 μM, NAR 50 μM, VAN 5 μM, SIM 5 μM, added -2, 0, +2, +4 h
# PL^pro = conditions: ref Anson et al., 2020; cited from earlier work
# M^pro = conditions: cited from earlier work; for Inhibition of M^pro proteolytic activity: ref Anson et al., 2020, Fu et al., Kneller et al., 2020a, Ma et al.
# SARS-CoV-2 [7] = conditions: ref Anson et al., 2020, Fu et al., Ma et al.; cited from earlier work
# Vero E6 cells = conditions: MTT
# SARS-CoV-2 [8] = type: cell-based; remark: listed apart in the source
# SARS-CoV-2 [9] = conditions: ref Lo et al., 2021; cited from earlier work
SMILES,"M^pro inhibition activity in FRET assay, in words (SARS-CoV-2 M^pro [1])","M^pro inhibitory activity in 1D 1H-NMR assay, in words (SARS-CoV-2 M^pro [2])","PL^pro protease activity inhibition, in words (SARS-CoV-2 PL^pro)","Inhibition of virus replication in Vero E6 cells, in words (SARS-CoV-2 [3])","Synergy Score (ZIP, SynergyFinder) with remdesivir (SARS-CoV-2 [4])",further results
"C=C[C@@H]1C[C@]1(NC(=O)[C@@H]1C[C@@H]2CN1C(=O)[C@H](C(C)(C)C)NC(=O)O[C@@H]1C[C@H]1CCCCCc1nc3ccc(OC)cc3nc1O2)C(=O)NS(=O)(=O)C1CC1.O [GRZ, Grazoprevir]",not detected,moderate inhibitory activity,inhibit,inhibited SARS-CoV-2 virus replication at concentrations significantly lower than the concentrations that cause cytotoxicity,+25.0,"PL^pro initial rate relative to absence of inhibitor (vo/vo,i) (SARS-CoV-2 PL^pro; 100 μM drug concentration): 32% ± 7%; Effect of HCV drug on the antiviral activity of remdesivir, in words (SARS-CoV-2 [4]): increase the antiviral activity of remdesivir; Effect of remdesivir on the antiviral activity (IC90) of the HCV drug, in words (SARS-CoV-2 [4]): substantially reduces; Interaction with remdesivir (additive / synergistic) (SARS-CoV-2 [5]): synergistic (key: a synergistic interaction between drugs has a score greater than +10; an additive interaction has a score between −10 to +10; an antagonistic interaction has a score of less than −10); Synergy Score (ZIP, SynergyFinder) with remdesivir (SARS-CoV-2 [5]): +20.3; Inhibition of virus replication by time of drug addition, in words (SARS-CoV-2 [6]): inhibited by the addition of these drugs as late as 4 h post-infection; Inhibition of PL^pro (PL^pro): inhibit"
"CCC(CC)COC(=O)[C@H](C)N[P@](=O)(OC[C@H]1O[C@@](C#N)(c2ccc3c(N)ncnn23)[C@H](O)[C@@H]1O)Oc1ccccc1 [Remdesivir, remdesivir]",–,–,–,–,–,"Inhibition of virus replication by time of drug addition, in words (SARS-CoV-2 [6]): decreased its ability to suppress virus infection"
"Cc1cnc(C(=O)N[C@H]2CCCCC/C=C\[C@@H]3C[C@@]3(C(=O)NS(=O)(=O)C3CC3)NC(=O)[C@@H]3C[C@@H](Oc4nc5ccccc5c5ccccc45)CN3C2=O)cn1 [PAR, Paritaprevir]",does not inhibit,does not inhibit,inhibit,inhibited SARS-CoV-2 virus replication at concentrations significantly lower than the concentrations that cause cytotoxicity,+17.3,–
"CC(C)(C)NC(=O)N[C@H](C(=O)N1C[C@H]2[C@@H]([C@H]1C(=O)NC(CC1CCC1)C(=O)C(N)=O)C2(C)C)C(C)(C)C (stereo partly shown) [BOC, Boceprevir]",–,substantial enzyme inhibition activity,–,inhibited SARS-CoV-2 virus replication at concentrations significantly lower than the concentrations that cause cytotoxicity,−7.6,"Effect of HCV drug on the antiviral activity of remdesivir, in words (SARS-CoV-2 [4]): did not significantly affect the antiviral activity of remdesivir; Effect of remdesivir on the antiviral activity (IC90) of the HCV drug, in words (SARS-CoV-2 [4]): did not significantly affect; Inhibition of M^pro proteolytic activity (M^pro): inhibit; Inhibition of SARS-CoV-2 replication in Vero cells (SARS-CoV-2 [7]): inhibit"
CC(C)C[C@H](NC(=O)OCc1ccccc1)C(=O)N[C@@H](CC1CCNC1=O)C(O)S(=O)(=O)[O-].[Na+] (stereo partly shown) [GC-376],–,–,–,–,–,"Interaction with remdesivir (additive / synergistic) (SARS-CoV-2 [4]; combination with remdesivir, Vero E6 cells): additive (an additive interaction has a score between −10 to +10); Specificity for M^pro relative to PL^pro (M^pro; ref Sacco et al., 2020): specific"
"CCCC[C@H](NC(=O)[C@@H]1[C@@H]2[C@H](CN1C(=O)[C@@H](NC(=O)NC1(CS(=O)(=O)C(C)(C)C)CCCCC1)C(C)(C)C)C2(C)C)C(=O)C(=O)NC1CC1 [NAR, Narlaprevir]",–,substantial enzyme inhibition activity,–,inhibited SARS-CoV-2 virus replication at concentrations significantly lower than the concentrations that cause cytotoxicity,–,Inhibition of M^pro proteolytic activity (M^pro): inhibit
"CC[C@@H]1C[C@]1(NC(=O)[C@@H]1C[C@@H]2CN1C(=O)[C@H](C(C)(C)C)NC(=O)OCC(C)(C)CCCCc1cccc3c1CN(C3)C(=O)O2)C(=O)NS(=O)(=O)C1CC1 [VAN, Vaniprevir]",not detected,substantial inhibitory activity,inhibit,inhibited virus replication with low IC50 values,–,"Cytotoxicity in Vero E6 cells, in words (Vero E6 cells): some cytotoxicity was also observed"
"CC(C)(C)OC(=O)N[C@H]1CCCCC/C=C\[C@@H]2C[C@@]2(C(=O)NS(=O)(=O)C2CC2)NC(=O)[C@@H]2C[C@@H](OC(=O)N3Cc4cccc(F)c4C3)CN2C1=O [DAN, Danoprevir]",–,–,–,did not inhibit virus replication,–,"Inhibition of virus replication in human 293T cells, in words (SARS-CoV-2 [8]): did not inhibit virus replication"
"CC(C)(C)[C@@H]1NC(=O)O[C@@H]2CCC[C@H]2OC/C=C/C(F)(F)c2nc3ccccc3nc2O[C@@H]2C[C@@H](C(=O)N[C@]3(C(=O)NS(=O)(=O)C4(C)CC4)C[C@H]3C(F)F)N(C2)C1=O [GLE, Glecaprevir]",–,–,–,did not inhibit virus replication,–,"Inhibition of virus replication in human 293T cells, in words (SARS-CoV-2 [8]): did not inhibit virus replication"
"C=C[C@@H]1C[C@]1(NC(=O)[C@@H]1C[C@@H](Oc2ncc(OC)c3ccc(Cl)cc23)CN1C(=O)[C@@H](NC(=O)OC(C)(C)C)C(C)(C)C)C(=O)NS(=O)(=O)C1CC1 [ASU, Asunaprevir]",not detected,moderate inhibitory activity,–,inhibited SARS-CoV-2 virus replication at concentrations significantly lower than the concentrations that cause cytotoxicity,–,"Inhibition of virus replication in human 293T cells, in words (SARS-CoV-2 [8]): did not inhibit viral replication in human cells at concentrations lower than those exhibiting cytotoxicity; Inhibition of PL^pro (PL^pro): inhibit"
"CCC[C@H](NC(=O)[C@@H]1[C@H]2CCC[C@H]2CN1C(=O)[C@@H](NC(=O)[C@@H](NC(=O)c1cnccn1)C1CCCCC1)C(C)(C)C)C(=O)C(=O)NC1CC1 [TEL, Telaprevir]",–,substantial enzyme inhibition activity,–,did not inhibit virus replication,–,Inhibition of M^pro proteolytic activity (M^pro): inhibit
"COc1ccc2c(O[C@@H]3C[C@H]4C(=O)N[C@]5(C(=O)NS(=O)(=O)C6CC6)C[C@H]5/C=C\CCCCN(C)C(=O)[C@@H]4C3)cc(-c3nc(C(C)C)cs3)nc2c1C [SIM, Simeprevir]",not detected,moderate inhibitory activity,inhibit,inhibited virus replication with low IC50 values,+30.2,"Effect of HCV drug on the antiviral activity of remdesivir, in words (SARS-CoV-2 [4]): increase the antiviral activity of remdesivir; Effect of remdesivir on the antiviral activity (IC90) of the HCV drug, in words (SARS-CoV-2 [4]): substantially reduces; Inhibition of virus replication by time of drug addition, in words (SARS-CoV-2 [6]): inhibited by the addition of these drugs as late as 4 h post-infection; Cytotoxicity in Vero E6 cells, in words (Vero E6 cells): some cytotoxicity was also observed; Inhibition of PL^pro (PL^pro): inhibit; Interaction with remdesivir (SARS-CoV-2 [9]): synergistically"
